{"source": "patent US20260225997A1", "about": "“IONIZABLE AMINE LIPIDS” (Intellia Therapeutics, Inc., priority 2018, published 2026)", "key": {"[1]": {"test": "pKa measurement of unformulated amine lipid (fluorescence, method of Jayaraman et al.)", "type": "physicochemical", "details": "100 μM in 0.1 M phosphate buffer pH 4.5-9.0", "protocol": "The pKa of each amine lipid was determined according to the method in Jayaraman, et al. (Angewandte Chemie, 2012) with the following adaptations. […] Lipid was diluted to 100 μM in 0.1 M phosphate buffer (Boston Bioproducts) where the pH ranged from 4.5-9.0. Fluorescence intensity was measured using excitation and emission wavelengths of 321 nm and 448 nm."}, "[2]": {"test": "RNA encapsulation efficiency of LNP (Ribogreen fluorescence assay)", "type": "physicochemical", "how_it_was_run": "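LNP samples diluted in 1× TE buffer with 0.2% Triton X-100 (total RNA) or without it (free RNA), stained with RiboGreen for ~10 min at room temperature in the dark, read at ex 488/em 525 nm against RNA standard curves. Encapsulation efficiency = (Total RNA − Free RNA)/Total RNA.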"}, "[3]": {"test_system": "TTR", "test": "TTR editing in mouse liver by NGS after i.v. LNP delivery of Cas9 mRNA and sgRNA", "type": "in vivo", "details": "CD-1 female mice", "how_it_was_run": "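Cas9 mRNA and chemically modified sgRNA were co-formulated in LNPs made of an ionizable amine lipid, DSPC, cholesterol and PEG-2k-DMG at a 6.0 N:P ratio. CD-1 female mice aged 6-10 weeks received tail-vein injections of 0.2 mL. Liver genomic DNA was then amplified around the target site and sequenced on an Illumina MiSeq, with editing calculated as indel-containing reads over total reads.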"}, "[4]": {"test_system": "TTR", "test": "Transthyretin (TTR) ELISA analysis of mouse serum after LNP dosing", "type": "in vivo", "details": "for response vs control in vivo at 0.1 mg/kg / response vs control in vivo at 0.03 mg/kg: read-out: Serum TTR % TSS", "how_it_was_run": "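Female CD-1 mice aged 6-10 weeks were grouped by body weight and given LNPs by lateral tail vein injection (0.2 mL per animal, about 10 mL per kilogram). Mice were bled by cardiac puncture under isoflurane into serum separator tubes. Serum was diluted 10,000-fold for the 0.1 mpk dose, and total TTR was quantified with a Mouse Prealbumin (Transthyretin) ELISA Kit following the kit directions.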"}, "[5]": {"details": "Example 53: 0.1 mpk i.v., 6 days post-dose, G282 1:1"}, "[6]": {"details": "Example 53: 0.3 mpk i.v., 6 days post-dose, G282 1:1"}, "[7]": {"details": "Example 55: 0.1 mpk i.v., 7 days post-dose, G282 1:1"}, "[8]": {"details": "Example 56: 0.1 mpk i.v., 7 days post-dose, G282"}, "[9]": {"details": "Example 59: 0.1 mpk i.v., 7 days post-dose, G282 1:1"}, "[10]": {"details": "Example 60: 0.1 mpk i.v., 6 days post-dose, G502 1:2"}, "[11]": {"details": "Example 61: 0.1 mpk i.v., 7 days post-dose, G282 1:1"}, "[12]": {"details": "Example 62: 0.03 mpk i.v., 7 days post-dose, G282 1:2"}, "[13]": {"details": "Example 62: 0.1 mpk i.v., 7 days post-dose, G282 1:2"}, "[14]": {"details": "Example 63: 0.03 mpk i.v., 7 days post-dose, G282 1:1"}, "[15]": {"details": "Example 63: 0.1 mpk i.v., 7 days post-dose, G282 1:1"}, "[16]": {"details": "Example 64: Dose 0.03 mpk (table) i.v., 7 days post-dose, G282 1:1"}}, "note": "Like-named read-outs stand apart in the source and are kept apart here.", "data": [{"smiles": "CCCCC/C=C\\C/C=C\\CCCCCCCC(=O)OCC(COC(=O)CCC(OCCCCCCCC)OCCCCCCCC)COC(=O)OCCCN(CC)CC", "note": "(stereo not drawn) [Compound 19, 3-((4,4-bis(octyloxy)butanoyl)oxy)-2-(((((3-(diethylamino)propoxy))-carbonyl)oxy)methyl)propyl (9Z,12Z)-octadeca-9,12-dienoate, reference compound]", "values": [{"measurement": "pKa", "setting": "[1]", "value": 6.4}, {"measurement": "Encapsulation (%)", "setting": "[2]; Table 3, Example 52: LNP, Cas9 mRNA + sgRNA (G650) 1:1 w/w, N:P 6.0, Compound 19 50/9/38/3, others 50/10/38.5/1.5", "value": 98, "unit": "%"}, {"measurement": "Encapsulation (%)", "setting": "[2]; Table 5, Example 53: LNP with gRNA G282 (TTR), 1:1 w/w, N:P 6.0", "value": 99, "unit": "%"}, {"measurement": "Encapsulation (%)", "setting": "[2]; Table 5, Example 53: LNP with gRNA G650 (B2M), 1:1 w/w, N:P 6.0", "value": 98, "unit": "%"}, {"measurement": "Encapsulation (%)", "setting": "[2]; Table 8, Example 54: LNP, G650 (B2M) 1:1 w/w, N:P 6.0", "value": 98, "unit": "%"}, {"measurement": "Encapsulation (%)", "setting": "[2]; Table 10, Example 55: LNP, G282 (TTR) 1:1 w/w, N:P 6.0", "value": 98, "unit": "%"}, {"measurement": "Encapsulation (%)", "setting": "[2]; Table 12, Example 56: LNP, G282 (TTR), ratio 6.0", "value": 97, "unit": "%"}, {"measurement": "Encapsulation (%)", "setting": "[2]; Table 14, Example 58: LNP, G282 (TTR) 1:1 w/w, N:P 6.0", "value": 99, "unit": "%"}, {"measurement": "Encapsulation (%)", "setting": "[2]; Table 16, Example 59: LNP, G282 (TTR) 1:1 w/w, N:P 6.0", "value": 98, "unit": "%"}, {"measurement": "Encapsulation (%)", "setting": "[2]; Table 18, Example 60: LNP, G502 (TTR), sgRNA:Cas9 mRNA 1:2 w/w, N:P 6.0", "value": 99, "unit": "%"}, {"measurement": "Encapsulation (%)", "setting": "[2]; Table 20, Example 61: LNP, G282 (TTR) 1:1 w/w, N:P 6.0", "value": 98, "unit": "%"}, {"measurement": "Encapsulation (%)", "setting": "[2]; Table 22, Example 62: LNP, G282 (TTR), sgRNA:Cas9 mRNA 1:2 w/w, N:P 6.0", "value": 99, "unit": "%"}, {"measurement": "Encapsulation (%)", "setting": "[2]; Table 24, Example 63: LNP, G282 (TTR) 1:1 w/w, NP 6.0", "value": 98, "unit": "%"}, {"measurement": "Encapsulation (%)", "setting": "[2]; Table 26, Example 64: LNP, G282 (TTR) 1:1 w/w, N:P 6.0", "value": 98, "unit": "%"}, {"measurement": "TTR Editing (%)", "setting": "[3]; [5]", "value": 13.8, "unit": "%"}, {"measurement": "TTR Editing (%)", "setting": "[3]; [6]", "value": 45.9, "unit": "%"}, {"measurement": "% Editing (TTR, liver)", "setting": "[3]; [7]", "value": 29, "unit": "%"}, {"measurement": "Editing %", "setting": "[3]; [8]", "value": 15, "unit": "%"}, {"measurement": "Editing Mean % Indel", "setting": "[3]; [9]", "value": 29.3, "unit": "%"}, {"measurement": "Editing Mean % Indel", "setting": "[3]; [10]", "value": 41.4, "unit": "%"}, {"measurement": "Editing Mean % Indel", "setting": "[3]; [11]", "value": 35.9, "unit": "%"}, {"measurement": "Editing Mean % Indel", "setting": "[3]; [12]", "value": 7.0, "unit": "%"}, {"measurement": "Editing Mean % Indel", "setting": "[3]; [13]", "value": 27.1, "unit": "%"}, {"measurement": "Editing Mean % Indel", "setting": "[3]; [14]", "value": 30.18, "unit": "%"}, {"measurement": "Editing Mean % Indel", "setting": "[3]; [15]", "value": 56.02, "unit": "%"}, {"measurement": "Editing Mean % Indel", "setting": "[3]; [16]", "value": 5.2, "unit": "%"}, {"measurement": "TSS (serum TTR % TSS)", "setting": "[4]; [5]", "value": 85, "unit": "% TSS"}, {"measurement": "Serum TTR", "setting": "[4]; Example 53: 0.1 mpk i.v., CD-1 female mice, 6 days post-dose, G282 1:1", "value": 55, "unit": "µg/mL"}, {"measurement": "TSS (serum TTR % TSS)", "setting": "[4]; [6]", "value": 3, "unit": "% TSS"}, {"measurement": "Serum TTR", "setting": "[4]; Example 53: 0.3 mpk i.v., CD-1 female mice, 6 days post-dose, G282 1:1", "value": 55, "unit": "µg/mL"}, {"measurement": "Serum TTR", "setting": "[4]; [7]", "value": 528, "unit": "µg/mL"}, {"measurement": "Serum TTR (% TSS)", "setting": "[4]; [7]", "value": 46, "unit": "% TSS"}, {"measurement": "Serum TTR", "setting": "[4]; [8]", "value": 865, "unit": "µg/mL"}, {"measurement": "Serum TTR (% TSS)", "setting": "[4]; [8]", "value": 108, "unit": "% TSS"}, {"measurement": "Serum TTR", "setting": "[4]; [9]", "value": 438, "unit": "µg/mL"}, {"measurement": "Serum TTR", "setting": "[4]; [10]", "value": 517, "unit": "µg/mL"}, {"measurement": "Serum TTR", "setting": "[4]; [11]", "value": 438, "unit": "µg/mL"}, {"measurement": "Serum TTR", "setting": "[4]; [12]", "value": 560, "unit": "µg/mL"}, {"measurement": "Serum TTR", "setting": "[4]; [13]", "value": 414, "unit": "µg/mL"}, {"measurement": "Serum TTR", "setting": "[4]; [14]", "value": 593.01, "unit": "µg/mL"}, {"measurement": "Serum TTR", "setting": "[4]; [15]", "value": 134.54, "unit": "µg/mL"}, {"measurement": "Serum TTR", "setting": "[4]; [16]", "value": 622.0, "unit": "µg/mL"}, {"measurement": "response vs control in vivo at 0.1 mg/kg", "setting": "[4]; Mus musculus, iv, 144 h, Example 58: 0.1 mpk i.v., 6 days post-dose, G282 1:1", "value": 59, "unit": "%"}, {"measurement": "response vs control in vivo at 0.1 mg/kg", "setting": "[4]; Mus musculus, iv, 144 h, Example 60: 0.1 mpk i.v., 6 days post-dose, G502 1:2", "value": 36, "unit": "%"}, {"measurement": "response vs control in vivo at 0.1 mg/kg", "setting": "[4]; Mus musculus, iv, 168 h, Example 59: 0.1 mpk i.v., 7 days post-dose, G282 1:1", "value": 47, "unit": "%"}, {"measurement": "response vs control in vivo at 0.1 mg/kg", "setting": "[4]; Mus musculus, iv, 168 h, Example 61: 0.1 mpk i.v., 7 days post-dose, G282 1:1", "value": 34, "unit": "%"}, {"measurement": "response vs control in vivo at 0.03 mg/kg", "setting": "[4]; Mus musculus, iv, 168 h, Example 62: 0.03 mpk i.v., 7 days post-dose, G282 1:2", "value": 88, "unit": "%"}, {"measurement": "response vs control in vivo at 0.1 mg/kg", "setting": "[4]; Mus musculus, iv, 168 h, Example 62: 0.1 mpk i.v., 7 days post-dose, G282 1:2", "value": 65, "unit": "%"}, {"measurement": "response vs control in vivo at 0.03 mg/kg", "setting": "[4]; Mus musculus, iv, 168 h, Example 63: 0.03 mpk i.v., 7 days post-dose, G282 1:1", "value": 73.5, "unit": "%"}, {"measurement": "response vs control in vivo at 0.1 mg/kg", "setting": "[4]; Mus musculus, iv, 168 h, Example 63: 0.1 mpk i.v., 7 days post-dose, G282 1:1", "value": 16.7, "unit": "%"}, {"measurement": "inhibition in vivo at 0.03 mg/kg", "setting": "[4]; Mus musculus, iv, 168 h, Example 64: Dose 0.03 mpk (table) i.v., 7 days post-dose, G282 1:1, read-out: Serum TTR (% KD)", "value": -8.6, "unit": "%"}]}]}
